Measurements reported in patent US5312816A, “Method of combatting osteoporosis in mammalian subjects, utilizing organic boron compounds” (priority 1993, dated 1994).
pIC50: −log10 of the molar value.

How the values were obtained:
Cathepsin [1] = experiment: Human leukocyte cathepsin; assay type: cell-based; conditions: read-out: Cathepsin IC50; Table XII; human leukocytes, 60 min incubation
Description: 5. Human peripheral leukocytes, RPMI-1788
(§1) 2. Acid Cathepsin D -azocasein-pH 5.0, hydrolytic azo-peptide produce 366 nm.

Trypsin [2] = experiment: Human osteoporosis fibroblasts trypsin (BAEE) activity; assay type: cell-based; conditions: read-out: Trypsin BAEE IC50; Table XI; human osteoporosis fibroblasts, 60 min incubation
Description: 1. Trypsin- N-benzoyl-L-arginine ethyl ester pH 8.0, hydrolytic product 253 nm.

Hydroxyproline = experiment: Serum and urine hydroxyproline levels in vivo; conditions: Cf1 male mice, 8 mg/kg/day I.P. 14 days, N=6
[3] = test system: Hepatic oxidative phosphorylation; experiment: Hepatic oxidative phosphorylation, Gilson oxygraph; assay type: biochemical, mouse; conditions: 10^-6 M; 1 µM
Description: (§2) 1. Cf1 male mouse hepatic 10% homogenates in 0.25M sucrose+0.001MEDTA,pH 7.2.

Aryl sulphatase [4] = experiment: Human osteoporosis fibroblasts aryl sulphatase activity; assay type: cell-based; conditions: read-out: Aryl Sulphatase IC50; Table X; human osteoporosis fibroblasts
Description: 3. Aryl sulphatase- p-nitrocatechol sulfate, pH
5. 8 p-nitro-catechol product 510 nm.

Prostaglandin synthetase = biological target: T1, Prostaglandin synthetase (Bos taurus, UniProt O62664); experiment: Prostaglandin synthetase (cyclooxygenase), purified beef seminal vesicle; assay type: biochemical
T1 construct: Prostaglandin synthetase purified beef seminal vesicle; from tissue
T1 sequence (O62664 25-600): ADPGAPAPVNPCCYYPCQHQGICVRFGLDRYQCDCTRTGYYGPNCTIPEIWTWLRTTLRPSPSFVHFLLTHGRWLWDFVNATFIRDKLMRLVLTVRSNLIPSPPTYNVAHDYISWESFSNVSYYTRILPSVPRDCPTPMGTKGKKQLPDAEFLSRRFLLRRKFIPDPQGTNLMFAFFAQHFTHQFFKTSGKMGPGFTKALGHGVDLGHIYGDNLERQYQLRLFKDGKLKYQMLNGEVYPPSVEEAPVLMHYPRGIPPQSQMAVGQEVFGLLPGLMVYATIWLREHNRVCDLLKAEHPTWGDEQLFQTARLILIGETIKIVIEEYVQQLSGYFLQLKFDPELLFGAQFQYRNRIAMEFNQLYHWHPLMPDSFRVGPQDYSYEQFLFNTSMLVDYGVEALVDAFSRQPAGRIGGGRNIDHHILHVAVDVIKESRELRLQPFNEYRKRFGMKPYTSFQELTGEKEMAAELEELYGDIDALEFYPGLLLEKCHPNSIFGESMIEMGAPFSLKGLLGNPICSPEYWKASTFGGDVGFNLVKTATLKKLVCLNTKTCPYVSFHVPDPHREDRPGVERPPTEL
Description: (§3) Prostaglandin synthetase purified beef seminal vesicle ^3 H arachidonic acid (86.2 Ci/mmol), tlc separation.

Calcium = experiment: Serum and urine calcium levels in vivo; conditions: Cf1 male mice, 8 mg/kg/day I.P. 14 days, N=6
Sprague Dawley Rats = experiment: Anti-inflammatory activity in Sprague Dawley rats; assay type: in vivo; conditions: Table IV; 8 mg/kg I.P.
Phosphorus = experiment: Serum and urine inorganic phosphorus levels in vivo; conditions: Cf1 male mice, 8 mg/kg/day I.P. 14 days, N=6
Acid phosphatase [5] = experiment: Human osteoporosis fibroblasts acid phosphatase activity; assay type: cell-based; conditions: read-out: Acid Phosphatase IC50; Table X; human osteoporosis fibroblasts
Description: (§4) 1. Acid phosphatase -beta glycerol-3-phosphate, pH 5.0, released IP 720 nm.

Cf1 male mice [6] = experiment: Writhing reflex, 0.6% acetic acid; assay type: in vivo; design: response vs control in vivo: dose or concentration left out as unconfirmed; conditions: Mus musculus, ip, read-out: Writhing Reflex Cf1 Mice
Cf1 male mice [7] = experiment: Writhing reflex, 0.6% acetic acid; assay type: in vivo; conditions: Table 1; Indomethacin 10 mg/kg
Procedure: Writhing reflex- Cf1 -male mice- 0.6% acetic acid I.P. drugs administered @20 mg/kg/ I.P. 20 min. later - the # of stretches/10 min.
Hendershot, L.C., et al, J.

Acid phosphatase [8] = experiment: Mouse hepatic lysosomal acid phosphatase activity; assay type: biochemical; conditions: for pIC50: Table V, mouse hepatic, 60 min incubation
Description: as §2
(§5) Lysosomal Enzymes - free and total [triton X-100].
as §4
Acid phosphatase activity -

[9] = test system: Prostaglandin cyclooxygenase; experiment: Human osteoporosis fibroblasts prostaglandin cyclooxygenase activity; assay type: cell-based; conditions: read-out: Prostaglandin Cyclooxygense IC50, Table XI, 60 min incubation
Acid phosphatase [10] = experiment: Rat PMNs acid phosphatase activity; assay type: cell-based; conditions: 5 × 10^-6 M, N=6; 5 µM
Description: (§6) 2. PMNs-polymorphonuclear neutrophils-rat peritoneal cavity 0.5% oyster glycogen.
as §4

Cf1 male mice [11] = experiment: Anti-inflammatory screen, Winter's test, 2% carrageenan hind foot; assay type: in vivo; conditions: Table 1; drugs 8 or 10 mg/kg I.P. 2X; Indomethacin 10 mg/kg
Procedure: Anti-inflammatory Screen- Cf1 - male mice-Winter's Test 2% carrageenan S.C. plantar surface of hind foot, drugs administered @8 or 10 mg/kg I.P. 2X
Winter, C.A., et al, Proc. Soc.

Acid phosphatase [12] = experiment: Mouse macrophage acid phosphatase activity; assay type: cell-based; conditions: read-out: Acid Phosphatase IC50; Table VII; mouse macrophage cultured cells, 60 min incubation
[13] = test system: Prostaglandin cyclooxygenase; experiment: Mouse macrophage prostaglandin cyclooxygenase activity; assay type: cell-based; conditions: read-out: Prostaglandin Cyclooxygenase IC50; Table VIII; mouse macrophages, 60 min incubation
Description: 3. Mouse macrophages J774A.1 BALB/c
as §3

cAMP = experiment: PMNs cAMP levels, Gilman's radioimmune assay; assay type: cell-based, rat; conditions: 5 × 10^-6 M, N=6
Description: as §6
cAMP levels Gilman's radioimmune assay. ^3 H(G)Cyclic-3', 5'-adenosine monophosphate.

Elastase [14] = experiment: Human osteoporosis fibroblasts elastase activity; assay type: cell-based; conditions: read-out: Elastase IC50; Table XI; human osteoporosis fibroblasts, 60 min incubation
Description: 2. Elastase- N-succinyl-L-alanyl-L-alanine-p-nitroanilide, pH 8.0, p-nitro anilide 410 nm.

Cathepsin [15] = biological target: T2, Cathepsin (Rattus norvegicus, UniProt P24268); experiment: Rat PMNs cathepsin activity; assay type: cell-based; conditions: pH 5; 5 × 10^-6 M, N=6; read-out: Rat PMNs Cathep.
T2 construct: azocasein assay pH 5.0
Description: as §6, §1

Sprague Dawley male rats [16] = experiment: Chronic adjuvant arthritis screen, Mycobacterium butyricum; assay type: in vivo; conditions: Table 1; Indomethacin 10 mg/kg
Aryl sulphatase [17] = experiment: Mouse macrophage aryl sulphatase activity; assay type: cell-based; conditions: read-out: Aryl Sulphatase IC50; Table VII; mouse macrophage cultured cells, 60 min incubation
Sprague Dawley male rats [18] = experiment: Anti-pleurisy screen, Evans blue + carrageenan; assay type: in vivo; conditions: Table 1
Cathepsin D [19] = biological target: T3, Cathepsin D (Homo sapiens, UniProt P07339); experiment: Human osteoporosis fibroblasts cathepsin D (azo-casein) activity; assay type: cell-based; conditions: read-out: Cathepsin D IC50; Table X; human osteoporosis fibroblasts, DMEM +10% FCS + P/S
T3 construct: azocasein assay pH 5.0
Description: Osteoporosis Human Fibroblast-CRL-1140, Be SA1

Trypsin [20] = experiment: Mouse macrophage trypsin (BAEE) activity; assay type: cell-based; conditions: read-out: Trypsin BAEE IC50; Table VIII; mouse macrophages, 60 min incubation
Cathepsin D [21] = biological target: T4, Cathepsin D (Mus musculus, UniProt P18242); experiment: Mouse hepatic lysosomal cathepsin D activity; assay type: biochemical; conditions: for pIC50: read-out: Cathepsin D IC50, Table V, mouse hepatic, 60 min incubation
T4 construct: azocasein assay pH 5.0
Description: as §2, §5, §1
Cathepsin azo casein activity -

Elastase [22] = experiment: Mouse macrophage elastase activity; assay type: cell-based; conditions: read-out: Elastase IC50; Table VIII; mouse macrophages, 60 min incubation
in vivo = conditions: mouse, Table 1, N=6
Procedure: Amine borane compounds (0 to 100 mg/kg) were administered to CF1 male mice as a single injection with six mice for each dosage. Mice were weighed daily and the number of deaths was recorded each day for a 14 day period. The LD50 value was determined by the procedure of S.C. Gad and C.S. Weil, "Statistics for Toxicologists" in Principles and Methods of Toxicology, A.W. Hayes, Ed., 2nd Edition, P 435-483 Raven Press, New York 1982.

[23] = biological target: Clostridium histolyticum Collagenase Type II; experiment: Commercial collagenase type II; assay type: biochemical; conditions: Table IX; commercial enzyme preparation
Description: 4. Collagenase II, Clostridium histolyticum, cartilage collagen.

5'-lipoxygenase = biological target: T5, 5'-lipoxygenase (Mus musculus, UniProt P48999); experiment: Mouse hepatic 5'-lipoxygenase activity; assay type: biochemical
T5 construct: Cf1 male mouse hepatic 10% homogenates; from tissue; host or cells: CF1 male mouse liver, 10% homogenate
T5 sequence (P48999 1-674): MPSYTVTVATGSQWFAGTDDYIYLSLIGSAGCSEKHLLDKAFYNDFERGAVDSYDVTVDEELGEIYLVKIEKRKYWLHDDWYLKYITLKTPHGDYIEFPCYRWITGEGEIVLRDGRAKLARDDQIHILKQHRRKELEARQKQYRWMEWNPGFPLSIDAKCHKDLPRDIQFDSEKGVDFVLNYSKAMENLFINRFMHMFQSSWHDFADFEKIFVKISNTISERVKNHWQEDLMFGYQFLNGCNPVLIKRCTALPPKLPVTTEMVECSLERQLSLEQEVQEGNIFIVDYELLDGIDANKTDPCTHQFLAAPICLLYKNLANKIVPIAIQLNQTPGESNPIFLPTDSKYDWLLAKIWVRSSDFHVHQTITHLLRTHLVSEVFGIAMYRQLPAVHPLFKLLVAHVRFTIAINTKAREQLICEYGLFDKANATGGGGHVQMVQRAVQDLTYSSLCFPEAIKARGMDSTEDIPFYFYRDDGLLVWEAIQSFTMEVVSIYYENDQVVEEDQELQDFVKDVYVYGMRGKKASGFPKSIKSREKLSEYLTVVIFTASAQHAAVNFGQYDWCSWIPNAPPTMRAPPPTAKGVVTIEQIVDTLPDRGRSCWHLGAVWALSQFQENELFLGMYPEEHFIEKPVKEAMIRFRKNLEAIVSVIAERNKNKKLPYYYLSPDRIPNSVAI
Description: as §2
5'-lipoxygenase Mylari, B.L., et al, J. Med.

[24] = test system: urinary excretion of calcium, magnesium, phosphorus; conditions: in the diet at 3 mg/day; cited from earlier work

T4 sequence (P18242 65-410): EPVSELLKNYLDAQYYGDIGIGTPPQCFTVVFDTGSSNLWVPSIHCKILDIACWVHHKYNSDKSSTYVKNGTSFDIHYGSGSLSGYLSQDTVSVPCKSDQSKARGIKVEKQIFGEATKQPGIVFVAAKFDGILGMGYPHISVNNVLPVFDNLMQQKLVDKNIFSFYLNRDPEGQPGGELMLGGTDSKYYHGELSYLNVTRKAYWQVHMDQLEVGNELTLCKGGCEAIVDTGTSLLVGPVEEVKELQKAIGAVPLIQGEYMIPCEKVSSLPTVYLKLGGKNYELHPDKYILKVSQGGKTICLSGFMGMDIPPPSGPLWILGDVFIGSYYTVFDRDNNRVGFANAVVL
T3 sequence (P07339 65-412): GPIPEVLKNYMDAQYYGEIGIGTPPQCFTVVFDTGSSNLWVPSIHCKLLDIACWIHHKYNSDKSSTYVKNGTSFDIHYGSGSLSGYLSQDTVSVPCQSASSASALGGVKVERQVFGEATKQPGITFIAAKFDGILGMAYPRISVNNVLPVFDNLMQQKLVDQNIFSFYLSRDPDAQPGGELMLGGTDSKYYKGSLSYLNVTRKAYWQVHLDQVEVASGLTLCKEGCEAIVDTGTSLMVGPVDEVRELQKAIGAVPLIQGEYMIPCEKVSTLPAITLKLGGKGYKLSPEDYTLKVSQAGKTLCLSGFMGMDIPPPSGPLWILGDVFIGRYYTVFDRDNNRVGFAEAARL
T2 sequence (P24268 65-407): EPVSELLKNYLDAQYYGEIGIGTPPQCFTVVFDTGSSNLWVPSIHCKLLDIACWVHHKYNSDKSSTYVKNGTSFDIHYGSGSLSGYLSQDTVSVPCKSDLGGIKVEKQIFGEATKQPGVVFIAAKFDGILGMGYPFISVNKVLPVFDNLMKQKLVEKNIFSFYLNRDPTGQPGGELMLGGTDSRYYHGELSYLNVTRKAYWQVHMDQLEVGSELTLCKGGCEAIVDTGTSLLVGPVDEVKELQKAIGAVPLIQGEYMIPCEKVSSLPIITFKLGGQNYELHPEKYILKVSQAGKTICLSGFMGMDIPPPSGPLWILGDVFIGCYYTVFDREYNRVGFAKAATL

C[N+](C)(C)[BH2-]C#N [Compound 2, Trimethylamine-cyanoborane]
pIC50 (Cathepsin [1]): 4.11
pIC50 (Trypsin [2]): 5.40
Hydroxyproline serum (Hydroxyproline): 71.7 % Control
Hydroxyproline urine (Hydroxyproline): 42.5 % Control
Hepatic Oxidative Phosphorylation Succinate State 3 [3]: 51 + 20 % Control
Hepatic Oxidative Phosphorylation Succinate State 4 [3]: 133 + 20 % Control
Hepatic Oxidative Phosphorylation alpha-Ketoglutrate State 3 [3]: 41 + 9 % Control
Hepatic Oxidative Phosphorylation alpha-Ketoglutrate State 4 [3]: 85 + 21 % Control
pIC50 (Aryl sulphatase [4]): 5.05
pIC50 (Prostaglandin synthetase): 5.23
Calcium serum (Calcium): 109.7 % Control
Calcium urine (Calcium): 50.8 % Control
Anti-Inflammatory Activity Sprague Dawley Rats (Sprague Dawley Rats): 65 % Control
Phosphorus serum (Phosphorus): 81.6 % Control
Phosphorus urine (Phosphorus): 39.6 % Control
pIC50 (Acid phosphatase [5]): 4.80
response vs control in vivo (Cf1 male mice [6]): 18%
Writhing (Cf1 male mice [7]): 18 % Control
Mouse Liver Acid Phosph. (Acid phosphatase [8]; 5 × 10^-6 M, N=6, 5 µM): 69 + 4 % Control
pIC50 (Acid phosphatase [8]): 5.45
pIC50 [9]: 5.37
Rat PMNs Acid Phoph. (Acid phosphatase [10]): 35 + 5 % Control
Anti-inflammatory (Cf1 male mice [11]): 42 % Control
pIC50 (Acid phosphatase [12]): 5.98
pIC50 [13]: 5.23
PMNs cAMP (cAMP): 245 % Control
pIC50 (Elastase [14]): 5.48
activity at 5 µM (Cathepsin [15]): 4%
Anti-arthritic (Sprague Dawley male rats [16]): 4 % Control
pIC50 (Aryl sulphatase [17]): 5.03
Anti-pleurisy (Sprague Dawley male rats [18]): 65 % Control
pIC50 (Cathepsin D [19]): 5.70
pIC50 (Trypsin [20]): 5.85
activity at 5 µM (Cathepsin D [21]; pH 5, read-out: Mouse Liver Cathep.): 6%
pIC50 (Cathepsin D [21]): 6.14
pIC50 (Elastase [22]): 5.87
LD50 at 336 h (in vivo): 70 mg/kg

C[B-](C#N)(C#N)[N+](C)(C)C [Compound 16, Trimethylamine-methyldicyanoborane]
pIC50 (Cathepsin [1]): 4.19
pIC50 (Trypsin [2]): 5.47
response vs control in vivo (Cf1 male mice [6]): 33.9%
pIC50 [9]: 5.03
pIC50 (Acid phosphatase [12]): 5.96
pIC50 [13]: 5.52
pIC50 [23]: 3.96
pIC50 (Elastase [14]): 5.44
pIC50 (Aryl sulphatase [17]): 5.07
pIC50 (Trypsin [20]): 5.79
pIC50 (Elastase [22]): 5.69

C[NH+](C)[BH2-]C#N [Compound 10, Dimethylamine-cyanoborane]
pIC50 (Cathepsin [1]): 4.27
pIC50 (Trypsin [2]): 5.19
pIC50 (Aryl sulphatase [4]): 5.10
Anti-Inflammatory Activity Sprague Dawley Rats (Sprague Dawley Rats): 61 % Control
pIC50 (Acid phosphatase [5]): 5.06
response vs control in vivo (Cf1 male mice [6]): 14.7%
pIC50 (Acid phosphatase [8]): 5.05
pIC50 [9]: 5.25
pIC50 (Acid phosphatase [12]): 5.95
pIC50 [13]: 5.23
pIC50 [23]: 3.97
pIC50 (Elastase [14]): 5.47
pIC50 (5'-lipoxygenase): 4.64
pIC50 (Aryl sulphatase [17]): 5.05
pIC50 (Cathepsin D [19]): 5.89
pIC50 (Trypsin [20]): 5.61
pIC50 (Cathepsin D [21]): 5.49
pIC50 (Elastase [22]): 5.60

O.O.O.O.O.O.O.O.O.O.[Na+].[Na+].[O-]B1OB2OB([O-])OB(O1)O2 [sodium borate]
urinary excretion of calcium, magnesium and perhaps phosphorus [24]: blocks the urinary excretion of calcium, magnesium and perhaps phosphorus
